Blank lines part the entries; values can stand above or below the molecule they belong to.
Legend:
[1] = DLS size, PDI and stability of copolymer-stabilized nanoparticles (Study 2); assay type: physicochemical; settings: nilotinib nanoparticles
Experimental: Preparation of nanoparticles. Drugs dissolved in DMSO (Carlo Erba, 10 mg/ml) were added under slight vortex to aqueous dye solution, buffered with 0.1M sodium bicarbonate. IR783 (Sigma-Aldrich) and the polymers' concentrations were 2 mg/ml. […] If the particles were cleaned in centrifuge, the solution was sonicated using Sonics' Vibra-cell ultrasonic processor (20% amplitude, 3 seconds pulses) until homogenous.
Characterization of nanoparticles. DLS measurements were conducted using a Zetasizer Nano ZS (Malvern Panalytical, Malvern, UK).

HCT116 = test: Cell viability assay in 2D (anti-cancer drug-screen); assay type: cell-based, human
Experimental: (§1) Cell viability assay in 2D. Cells were seeded in 96 well plates at a 30% confluency and allowed to adhere for 24 h. All drugs were dissolved in DMSO. Nanoparticles were suspended in DDW and were added to the wells after dilution with growth medium. Untreated cells (control) were used to establish 100% viability. The effect on cell viability was measured both with Promega® CellTiter-Glo® (CTG) and with images taken by the Lionheart followed by a cell count feature provided by the vendor (BioTeK).

KPL = test: as above; assay type: cell-based, mice
Experimental: as §1

[2] = DLS size and PDI of drug nanoparticles with dye stabilizers (Study 1); assay type: physicochemical; settings: for nanoparticle formation with IR783: stabilizer IR783; for nanoparticle formation with R595: stabilizer R595
Experimental: For comparison with other stabilizers, the […] was replaced with the following excipients: Pluronic F-127, sodium lauryl sulfate (SDS), carboxymethyl cellulose (CMC), α-cyclodextrin (αCD), β-cyclodextrin (βCD), βCD-SO3, and human serum albumin (HSA). All compounds were dissolved as 10 mg/ml in DDW. Further comparison of […] with IR783/IR820 based nanoparticles was also performed in DDW. The solutions were centrifuged (30,000 g, 15 min, room temperature) and the pellet was resuspended in 1 ml of DDW. In the automation process, using the Andrew Alliance pipetting robot (Waters Corp, MA), the nanoparticles were purified using a PD-10 desalting column (Cytiva, Marlborough, MA) and 1.7 ml of eluent was collected after 2.5 ml void volume (defined by the vendor). Characterization of nanoparticles. Dynamic light scattering (DLS) measurements were conducted using a Zetasizer Nano ZS (Malvern Panalytical, Malvern, UK).

3T3 cells = test: Image-based cell counting toxicity assay; parameters: species or system mouse; settings: free drug; attributed to >5% DMSO in the medium
Experimental: Polymers toxicity assay in 2D. 3T3 Cells were seeded in 96 well plates at a 30% confluency (6000 cells per well) and allowed to adhere for 24 h. Polymers were purified with Sephadex G25 columns, nanoparticles were suspended in DDW and added to the wells. Untreated cells (control) were used to establish 100% viability. The effect on cell viability was measured with MTT (5 mg/ml, Glentham Life Sciences, UK).
In-vitro toxicity and anti-tumor efficacy experiments. First, we tested the three leading copolymers for in-vitro cytotoxicity, using mouse embryonic fibroblast cells (3T3 cells) as a non-cancerous model (FIG. 12). The copolymers were purified with Sephadex G25 columns and were serially diluted in a 96-well plate seeded with the cells. We used two separate viability assays: MTT and an image-based cell counting method using automated microscopy. In the MTT assay we found no reduction in cell viability over control, even in the highest concentration of polymers (FIG. 12, upper and middle panels). […] The cells morphology was not changed following incubation with the polymers, though at higher concentrations intracellular dark vesicles could be observed, indicating cellular uptake into the endo-lysosomal pathway (FIG. 13).

[3] = Long-term stability and shelf-life of nanoparticles (size and PDI over time); assay type: physicochemical; settings: trametinib nanoparticles with different dyes; within the first 24 hours
Experimental: Manual preparation of nanoparticles. 100 μL of drugs dissolved in DMSO (10 mg/ml) were added under slight vortexing to 0.5 ml of 0.1 M sodium bicarbonate buffer containing 1.6 mg/ml R595 (100 μl from 10 mg/ml stock solution in 0.5 ml). For comparison with other stabilizers, the R595 was replaced with the following excipients: Pluronic F-127, sodium lauryl sulfate (SDS), carboxymethyl cellulose (CMC), α-cyclodextrin (αCD), β-cyclodextrin (βCD), βCD-SO3, and human serum albumin (HSA). All compounds were dissolved as 10 mg/ml in DDW. Further comparison of R595 with IR783/IR820 based nanoparticles was also performed in DDW. The solutions were centrifuged (30,000 g, 15 min, room temperature) and the pellet was resuspended in 1 ml of DDW. In the automation process, using the Andrew Alliance pipetting robot (Waters Corp, MA), the nanoparticles were purified using a PD-10 desalting column (Cytiva, Marlborough, MA) and 1.7 ml of eluent was collected after 2.5 ml void volume (defined by the vendor).
Characterization of nanoparticles. Dynamic light scattering (DLS) measurements were conducted using a Zetasizer Nano ZS (Malvern Panalytical, Malvern, UK).

KPL cells = settings: mouse, in vivo, ip
Experimental: KRAS driven lung tumor studies. Six-weeks-old female C57BL/6J mice strain were purchased from Envigo RMS. Inducing tumors in the lung was done by injecting 10^5 KPL cells suspended in 200 μl of PBS intravenously (IV) via the tail vein. […] For efficacy studies, treatments were administered biweekly for ten weeks. For safety studies, immunohistochemistry (H&E) was done on treated mice. Animals were euthanized using CO2 inhalation. Mice were housed in air-filtered laminar flow cabinets with a 12-hr light/dark cycle and food and water ad libitum.

SMILES: CC(C)C[C@H](NC(=O)[C@H](CCc1ccccc1)NC(=O)CN1CCOCC1)C(=O)N[C@@H](Cc1ccccc1)C(=O)N[C@@H](CC(C)C)C(=O)[C@@]1(C)CO1 [carfilzomib]
potency in cell viability drug-screen with 7 drugs (HCT116): highest potency
potency in cell viability drug-screen with 7 drugs (KPL): highest potency

SMILES: CCc1c2c(nc3ccc(OC(=O)N4CCC(N5CCCCC5)CC4)cc13)-c1cc3c(c(=O)n1C2)COC(=O)[C@]3(O)CC [irinotecan]
nanoparticle formation with IR783 [2]: failed to form nanoparticles
nanoparticle formation with R595 [2]: formed stable nanoparticles

SMILES: CNC(=O)c1ccc(N2C(=S)N(c3ccc(C#N)c(C(F)(F)F)c3)C(=O)C2(C)C)cc1F [Free enzalutamide, enzalutamide]
toxicity in 3T3 cells (3T3 cells): slight toxicity in high concentrations

SMILES: COc1cc2nccc(Oc3ccc(NC(=O)NC4CC4)c(Cl)c3)c2cc1C(N)=O [lenvatinib]
nanoparticle formation with IR783 [2]: failed to form nanoparticles
nanoparticle formation with R595 [2]: formed stable nanoparticles

SMILES: CC(=O)Nc1cccc(-n2c(=O)n(C3CC3)c(=O)c3c(Nc4ccc(I)cc4F)n(C)c(=O)c(C)c32)c1 [trametinib]
toxicity as observed with weight changes (KPL cells): no dose limiting toxicities

Other lines, results leading:

time to aggregation [1]: ≤ 24 h
SMILES: CC1(C)C(=CC=C2CCCC(C=CC3=[N+](CCCCS(=O)(=O)[O-])c4ccccc4C3(C)C)=C2Cl)N(CCCCS(=O)(=O)[O-])c2ccccc21.[Na+] [IR783]

stabilizer comparison (size and PDI) [3]: better stabilizer than IR783
SMILES: CC1(C)C(=CC=C2CCCC(C=CC3=[N+](CCCCS(=O)(=O)[O-])c4ccc5ccccc5c4C3(C)C)=C2Cl)N(CCCCS(=O)(=O)[O-])c2ccc3ccccc3c21.[Na+] [IR820]

From patent US20260060936A1, “INDOLIUM-BASED STABILIZERS OF HYDROPHOBIC DRUGS” (TECHNION RESEARCH & DEVELOPMENT FOUNDATION LTD., priority 2022, published 2026)
